Assays:
[1] = molecular target: T1, Lysozyme (Gallus gallus, UniProt P00698); test: Lysozyme assay (Biovision Lysozyme inhibitor screening kit K237); assay type: biochemical; settings: 10 concentrations, 5 nM to 100 μM, result in words
T1 construct: purchased Biovision K237
Protocol: (§1) Enzyme screens were performed by SAMDI Tech (contract research organization); enzyme assays were performed in a 20 μL volume in 384-well low-volume polypropylene microtiter plates (Greiner Bio-One) at room temperature. The enzymes [Arginase 1 (ARG1), Lysine demethylase 4C (KDM4C), MAP/microtubule affinity-regulating kinase 4 (MARK4), Histone-Lysine N-methyltransferase (NSD2), Tyrosine-protein phosphatase non-receptor type 1 (PTP1B), and Sirtuin-3 (SIRT3)] were incubated with compounds for 30 min prior to initiation of the reaction by the addition of substrate and cofactors (if required). Reactions were quenched by the addition of 0.5% formic acid (final) with subsequent neutralization using 1% sodium bicarbonate (final). For SAMDI MS analysis, 2 μL of each reaction was transferred using a 384-channel automated liquid handler to SAMDI biochip arrays functionalized with a neutravidin-presenting self-assembled monolayer. The preparation of SAMDI biochip arrays has been previously described ([41], [42], [49]). The SAMDI arrays were incubated for 1 h in a humidified chamber to allow specific immobilization of the biotinylated substrates and products; they were then purified by washing with ultrafiltered water (50 μL/spot) and dried with compressed air. A matrix comprising α-Cyano-4-hydroxycinnamic acid in 80% acetonitrile: 20% aqueous ammonium citrate (10 mg/mL final) was applied in an automated format by dispensing 50 nL to each spot in the array. SAMDI MS was performed using reflector positive mode on an AB Sciex TOF-TOF 5800 System (AB Sciex, Framingham, MA) with 400 shots/spot analyzed in a random raster sampling. For data analysis, the area under the curves (AUCs) for the product peak and substrate peak were calculated using the TOF/TOF Series Explorer (AB Sciex), and the amount of product formed was calculated using the equation AUC product / (AUC product + AUC Substrate). Negative controls were pre-quenched with 0.5% formic acid (final). Lysozyme assay was performed using the manufacturer’s instructions (Biovision Lysozyme inhibitor screening kit K237). Flavonoids were acquired from Sigma-Aldrich and Seleckchem.
IC50 values of enzyme inhibition. Inhibition of the enzymes was measured at 10 concentration values in the range of 5 nM to 100 μM for each compound and enzyme, with two technical replicates; the percent inhibition values were determined by SAMDI software. Sigmoidal curves were fitted to the percent inhibition vs log10 (concentration) series, and IC50 values were determined at the crossing point of 50 % inhibition. Manual verification of the fits and the IC50 values was performed. The resulting IC50 values fell into the following categories: (a) within the assayed range of 5nM to 100μM (26 % of fits), (b) IC50 could be extrapolated, IC50 > 100μM (12 % of fits), or (c) fitting was not possible because all values were at baseline (62 % of fits). Compound efficacy ranking. First, for each IC50 value per compound and enzyme, a Z-score was calculated based on the log10 (IC50) value and that of the compounds that produced a successful readout for enzyme i , according to Equation 1: […]

[2] = molecular target: T2, Tyrosine-protein phosphatase non-receptor type 1 (PTP1B) (Homo sapiens, UniProt P18031); test: Enzyme activity assay (SAMDI-MS), PTP1B; assay type: biochemical; settings: 10 concentrations, 5 nM to 100 μM, compounds incubated with enzyme 30 min, result in words
T2 sequence (P18031 1-435): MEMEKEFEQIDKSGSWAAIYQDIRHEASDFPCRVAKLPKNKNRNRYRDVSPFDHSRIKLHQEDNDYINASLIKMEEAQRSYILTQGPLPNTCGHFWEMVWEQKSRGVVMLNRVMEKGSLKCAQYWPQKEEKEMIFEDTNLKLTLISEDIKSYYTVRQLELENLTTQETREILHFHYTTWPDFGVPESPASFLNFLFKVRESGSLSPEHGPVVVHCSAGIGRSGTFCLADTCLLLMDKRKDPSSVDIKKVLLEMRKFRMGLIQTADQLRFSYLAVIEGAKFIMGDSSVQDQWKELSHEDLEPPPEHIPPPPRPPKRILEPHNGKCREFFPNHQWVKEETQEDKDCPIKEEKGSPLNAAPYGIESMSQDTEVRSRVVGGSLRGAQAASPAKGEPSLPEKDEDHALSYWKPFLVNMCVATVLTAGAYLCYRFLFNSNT
Protocol: as §1
IC50 values of enzyme inhibition. Inhibition of the enzymes was measured at 10 concentration values in the range of 5 nM to 100 μM for each compound and enzyme, with two technical replicates; the percent inhibition values were determined by SAMDI software. Sigmoidal curves were fitted to the percent inhibition vs log10 (concentration) series, and IC50 values were determined at the crossing point of 50 % inhibition. […] First, for each IC50 value per compound and enzyme, a Z-score was calculated based on the log10 (IC50) value and that of the compounds that produced a successful readout for enzyme i , according to Equation 1: […]

[3] = system: human dermal fibroblasts; test: Protection of fibroblasts against ultraviolet radiation, cell viability by CellTiter-Glo; assay type: cell-based; settings: 1 h pretreatment, 254 nm UV 20 mJ/cm^2, viability 24 h post-irradiation; result in words
Protocol: Human fibroblasts were obtained from Cell Applications Inc (Cat. # 106-05a) and were maintained in Dulbecco’s Modified Eagle medium (DMEM, Corning, Cat. #10-013-CV) with 10% fetal bovine serum (Gibco, Cat. #10082147) and 1% penicillin/streptomycin (Gibco, Cat. # 15070-063) in a humidified incubator with 5% CO2 at 37 °C. For ultraviolet radiation, fibroblasts were seeded in a 96-well plate at a density of 25,000 cells/well and maintained at 37 °C for 24 h. Cells were washed once with Hanks’ balanced salt solution (HBSS, Gibco, Cat. #14025-092), then treated for 1 h with different concentrations of compounds prepared in HBSS. Vitamin C (Sigma, Cat. # A5960) served as a positive control. Treated cells were exposed to ultraviolet light (UVP cross-linker, CL1000, 254 nm UV, 8 watts) at a total dose of 20 mJ/cm^2. Following irradiation, the HBSS was replaced with culture medium containing the same concentration of compounds as before irradiation, and cells were again maintained at 37 °C. Cell viability was measured at 24 h post-irradiation using CellTiter-Glo according to the manufacturer’s instructions (Promega, Cat.# G7571). Results were expressed as relative cell viability (%) with respect to control cells (cells without ultraviolet irradiation or compound treatment).

T1 sequence (P00698 19-147): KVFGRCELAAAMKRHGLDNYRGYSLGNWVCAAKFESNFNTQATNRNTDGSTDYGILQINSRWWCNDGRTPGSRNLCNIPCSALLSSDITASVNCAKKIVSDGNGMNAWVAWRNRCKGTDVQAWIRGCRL

Row | SMILES | inhibition of enzyme activity, Lysozyme [1] | inhibition of enzyme activity, PTP1B [2] | protection against the loss of cell viability caused by UV radiation [3] | inhibition of enzyme activity, Lysozyme ([1]; listed as Quercetin) | inhibition of enzyme activity, Lysozyme ([1]; listed as Quercitin) | inhibition of enzyme activity, PTP1B ([2]; listed as Quercetin) | inhibition of enzyme activity, PTP1B ([2]; listed as Quercitin)
1 | O=c1c(O[C@@H]2O[C@H](CO)[C@@H](O)[C@H](O)[C@H]2O)c(-c2ccc(O)c(O)c2)oc2cc(O)cc(O)c12 [isoquercitrin] | blocked | not | concentration-dependent protection | – | – | – | –
2 | O=c1c(O)c(-c2ccc(O)c(O)c2)oc2cc(O)cc(O)c12 [quercetin] | blocked | – | concentration-dependent protection | inhibited | concentration-dependent inhibition | inhibited | concentration-dependent inhibition
3 | C[C@@H]1O[C@@H](Oc2c(-c3ccc(O)c(O)c3)oc3cc(O)cc(O)c3c2=O)[C@H](O)[C@H](O)[C@H]1O [quercitrin] | blocked | did not affect | concentration-dependent protection | – | – | – | –

From paper PMC12439166, “Dietary flavonoids form supramolecular assemblies, alter biochemistry, and enhance cell resilience” (Frontiers in Nutrition, 2025)
